These results are taken from ChEMBL document CHEMBL1157539, “Thousands of chemical starting points for antimalarial lead identification” (Nature, 2010).

For this test, the system named is Plasmodium falciparum. Put plainly: GSK_TCMDC: Inhibition of Plasmodium falciparum 3D7 in whole erythrocytes, using parasite LDH activity as an index of growth. The test is classed as functional, organism-based.

On to `COC(=O)c1ccc2nc(-c3ccc(/C=C/C(=O)NCc4ccc(Cl)c(Cl)c4)cc3)[nH]c2c1`, for which, for the setting “Plasmodium falciparum, 3D7”, the XC50 was 1340 nM.

For `Cc1cc(Cl)c(S(=O)(=O)NC(C)(C)C)cc1OCC(=O)NC1CCCCC1`, the XC50 (Plasmodium falciparum, 3D7) was determined as 548 nM.

`Cc1cc(Cl)c(Cl)cc1NC(=O)Nc1cccc(C(F)(F)F)c1`: the XC50 (Plasmodium falciparum, 3D7) is 873 nM.

For the setting “Plasmodium falciparum, 3D7”, `Cc1cccc2nc(-c3ccc(-c4cccc(NC(=O)CCc5c[nH]cn5)c4)cc3)[nH]c12` yielded an XC50 of 410 nM.

`COCCCNc1sc(S(=O)(=O)c2ccccc2)nc1S(=O)(=O)c1ccc(Cl)cc1` displayed an XC50 (Plasmodium falciparum, 3D7) of 877 nM.

In turn, `CN1CCN(CCCN(Cc2ccc(-c3cccc(CNCc4ccc5c(c4)OCO5)c3)cc2)C(=O)CCC2CCCC2)CC1` registered an XC50 (Plasmodium falciparum, 3D7) of 1010 nM.

Under “Plasmodium falciparum, 3D7”, `CCCCCN1CCC(NC(=O)c2ccc(C(=O)Nc3ccc(C(C)C)cc3)cc2)CC1` had an XC50 of 845 nM.

`CCN(CC)c1ccc(C=CC(=O)NCCN2CCC(N(C)C3CCCCC3C)CC2)cc1` (stereo unspecified) showed an XC50 (Plasmodium falciparum, 3D7) of 965 nM.

With `N#Cc1ccc(-c2ccc(C(=O)NCC3CCN(CCN4CCC(c5ccc6c(c5OCC(N)=O)CCCC6)CC4)CC3)cc2)cc1`, the XC50 (Plasmodium falciparum, 3D7) was 443 nM.

In turn, `Cc1cc(N2CCCC2)nc(Nc2ccc(NC(=O)Cc3ccccc3)cc2)n1` yielded an XC50 (Plasmodium falciparum, 3D7) of 606 nM.

In turn, `O=C(O)c1cccnc1Sc1ccc(Cl)cc1` showed an XC50 (Plasmodium falciparum, 3D7) of 830 nM.

Consider `CCN1CCC(N(Cc2ccc(-c3ccc(C(F)(F)F)cc3)cc2)C(=O)Cn2c(SCc3cccc(F)c3F)cc(=O)c3ccccc32)C1` (stereo unspecified), for which the XC50 (Plasmodium falciparum, 3D7) worked out at 882 nM.

Where the note is “Plasmodium falciparum, 3D7”, `CC(C)c1ncc(-c2ccncc2)c(C2CCC(CNC(=O)c3ccncc3)CC2)n1` (stereo unspecified) had an XC50 of 1350 nM.

Take `Cc1onc(-c2c(F)cccc2Cl)c1C(=O)Nc1ccccc1I`: the XC50 (Plasmodium falciparum, 3D7) came out at 952 nM.

Consider `O=C(NCc1ccc(C(=O)NC2CCCCC2)cc1)c1ccc(O)c(-c2ccc(Cl)c(Cl)c2)c1`, for which the XC50 (Plasmodium falciparum, 3D7) was 875 nM.

Regarding `CC(=O)Nc1ccc(C(=O)Nc2cccc(-c3csc(-c4nc5ccccc5[nH]4)c3)c2)cn1`, the XC50 (Plasmodium falciparum, 3D7) turned out to be 119 nM.

For the molecule `CN(C)c1ccc(CN2CCC(NC(=O)c3ccc(-c4cccc(C(F)(F)F)c4)s3)CC2)cc1`, for the setting “Plasmodium falciparum, 3D7”, the XC50 amounted to 1150 nM.

Molecule `O=C(Nc1cccc(Cl)c1)OC1CCCN2CCCCC12` (stereo unspecified) yielded an XC50 (Plasmodium falciparum, 3D7) of 1020 nM.

As to `COc1ccc(CN2CCC2=O)c(OC)c1`, where the note is “Plasmodium falciparum, 3D7”, the XC50 was 122 nM.

Turning to `CN1CCC(NCc2ccc(-c3ccc(S(=O)(=O)NCc4ccccc4)c(F)c3)cc2)CC1`, for the setting “Plasmodium falciparum, 3D7”, the XC50 stood at 611 nM.

Molecule `COc1ccc(CC(C)NCC(O)c2ccc(Cl)c(Cl)c2)cc1` (stereo unspecified) registered an XC50 (Plasmodium falciparum, 3D7) of 717 nM.

On to `Cc1cc(C)cc(CC(=O)N2CCC(n3c(C)nc4ccc(C)cc43)CC2)c1`, for which the XC50 (Plasmodium falciparum, 3D7) came out at 534 nM.

With `COc1ccc2[nH]c(C)cc(=NN=Cc3cc(C)ccc3O)c2c1`, the XC50 (Plasmodium falciparum, 3D7) amounted to 143 nM.

`CCc1c(C(=O)NC2CCC(N3CCC(c4ccccc4OC)CC3)CC2)[nH]c2ccc(OC)cc12` (stereo unspecified) registered an XC50 (Plasmodium falciparum, 3D7) of 1110 nM.

For `CN1C(=O)OC[C@@H]1Cc1ccc2[nH]cc(C3=CCN(Cc4ccccc4)CC3)c2c1`, the XC50 (Plasmodium falciparum, 3D7) turned out to be 417 nM.

In the case of `Cc1cccc2nc(-c3ccc(-c4ccc(CN5CCN(c6ccncc6)CC5)cc4)s3)[nH]c12`, for the setting “Plasmodium falciparum, 3D7”, the XC50 stood at 114 nM.

Take `Nc1ncc(-c2cc3ccccc3o2)c(N)n1`: for the setting “Plasmodium falciparum, 3D7”, the XC50 stood at 1410 nM.

On to `Cc1cc(NC(=O)c2cc(S(=O)(=O)N3CCCCC3)ccc2C)no1`, for which the XC50 (Plasmodium falciparum, 3D7) was 725 nM.

`Nc1ncc(-c2ccsc2)c2ccc(-c3cnc[nH]3)cc12` had an XC50 (Plasmodium falciparum, 3D7) of 573 nM.

On to `CN(C)CCCNCc1ccc(-c2ccc(CNCCOc3ccccc3)cc2)cc1`, for which the XC50 (Plasmodium falciparum, 3D7) worked out at 18.6 nM.

For the setting “Plasmodium falciparum, 3D7”, `Clc1ccc(C2CCN(CCCOc3ccc4c(c3)CCNCC4)CC2)cc1` came in with an XC50 of 754 nM.

Take `CN1CCC(NCc2cccc(-c3ccc(S(=O)(=O)NCCN4CCCC4)c(F)c3)c2)CC1`: the XC50 (Plasmodium falciparum, 3D7) was 1010 nM.

`Cc1nc(-c2nc(N3CCOCC3)ncc2-c2ccsc2)sc1C` gave an XC50 (Plasmodium falciparum, 3D7) of 315 nM.

The molecule `CC(C)C[C@@H]1C(=O)N[C@H](C2Cc3ccccc3C2)C(=O)N1[C@@H](C(=O)O)c1ccc(F)cc1F` displayed an XC50 (Plasmodium falciparum, 3D7) of 836 nM.

Take `Clc1ccc2c(N3CCN(CCN4CCN(c5ccnc6cc(Cl)ccc56)CC4)CC3)ccnc2c1`: the XC50 (Plasmodium falciparum, 3D7) is 128 nM.

The molecule `COc1ccc2nccc([C@@H](O)CN3CCC(NCc4ccc(OC)c(NC(C)=O)c4)CC3)c2c1` gave an XC50 (Plasmodium falciparum, 3D7) of 835 nM.

Consider `COC(=O)c1cccc(NC(=O)NC2CCN(c3ccnc(Nc4ccc(F)cc4)n3)C2)c1` (stereo unspecified), for which, under “Plasmodium falciparum, 3D7”, the XC50 worked out at 500 nM.

As for `CN1CCN(c2ccnc3cc4ccccc4cc23)CC1`, where the note is “Plasmodium falciparum, 3D7”, the XC50 was 947 nM.

For the molecule `CCCCCCn1c2c(c(=N)c3c1CCC3)CCC2`, the XC50 (Plasmodium falciparum, 3D7) turned out to be 178 nM.

Consider `CCN(CC)CCNc1ccnc2[nH]c3ccc([N+](=O)[O-])cc3c12`, for which, where the note is “Plasmodium falciparum, 3D7”, the XC50 was 198 nM.

Turning to `Cc1cc(O)nc(NC#N)n1`, the XC50 (Plasmodium falciparum, 3D7) stood at 166 nM.

`NC1CCN(Cc2ccc(-c3cccc(-c4nc5cc(F)ccc5[nH]4)c3)cc2)C1` (stereo unspecified) displayed an XC50 (Plasmodium falciparum, 3D7) of 759 nM.

In turn, `O=C(Nc1ccc(N2CCCN(Cc3cccc(F)c3)CC2)cc1)c1ccccc1` came in with an XC50 (Plasmodium falciparum, 3D7) of 961 nM.

As to `Cc1sc2cc(Cl)cc(Cl)c2c1S(=O)(=O)Nc1ccc2nccc(N3CCNCC3)c2c1`, under “Plasmodium falciparum, 3D7”, the XC50 stood at 124 nM.

For `Nc1ccnc(N2CCC(CCOc3cc(C(F)(F)F)nc4c(C(F)(F)F)cccc34)CC2)c1`, the XC50 (Plasmodium falciparum, 3D7) amounted to 792 nM.

Where the note is “Plasmodium falciparum, 3D7”, `CCOP(=O)(OCC)c1ccc(OC)c(-c2ccc[nH]2)c1` came in with an XC50 of 1190 nM.

`CN1CCN(c2ccnc3ccc(NC(=O)Nc4cccc5c(-c6ccncc6)cccc45)cc23)CC1`: for the setting “Plasmodium falciparum, 3D7”, the XC50 came out at 877 nM.

For the molecule `COc1cc(NC(=O)c2c(-c3c(Cl)cccc3Cl)noc2C)c(OC)cc1Cl`, the XC50 (Plasmodium falciparum, 3D7) amounted to 916 nM.

In the case of `COc1ccc2c(C)cc(NCCCN(C)C)nc2c1`, the XC50 (Plasmodium falciparum, 3D7) was 1100 nM.

`Cc1cc(Nc2ccc3c(c2)CCC3)n2ncnc2n1` returned an XC50 (Plasmodium falciparum, 3D7) of 967 nM.

As for `N=C(N)NC(=O)Nc1cc(Cl)c(F)c(Cl)c1`, the XC50 (Plasmodium falciparum, 3D7) turned out to be 635 nM.

`COc1ccc(Br)cc1/C=C/C(=O)Nc1ccc2c(c1)CCCN(C)C2` showed an XC50 (Plasmodium falciparum, 3D7) of 1560 nM.

With `CC(C)(C)c1cc(C(=O)Nc2cccnc2)cc(C(=O)Nc2cccnc2)c1`, for the setting “Plasmodium falciparum, 3D7”, the XC50 worked out at 761 nM.

`CC(C)(CNC(=O)/C=C/c1ccc(Cl)c(Cl)c1)CNc1cc(=O)c2ccccc2[nH]1`: for the setting “Plasmodium falciparum, 3D7”, the XC50 was 856 nM.

The molecule `O=C(NCCc1ccccc1)c1cc(-c2cccnc2)cnc1NCC1CC1` displayed an XC50 (Plasmodium falciparum, 3D7) of 847 nM.

Under “Plasmodium falciparum, 3D7”, `Fc1ccc2[nH]c(-c3cccc(-c4ccc(CNCC5CCCO5)cc4)c3)nc2c1` (stereo unspecified) yielded an XC50 of 541 nM.

The molecule `N#Cc1ccc2c(c1)CN(CC[C@H]1CC[C@H](NC(=O)/C=C/c3c[nH]c4ccccc34)CC1)CC2` gave an XC50 of 897 nM. In addition, the XC50 (Plasmodium falciparum, 3D7) came out at 986 nM.

The molecule `O=c1cc(N2CCCNCC2)c(Cl)nn1Cc1ccc(NS(=O)(=O)c2ccc(Oc3ccccc3)cc2)cc1` displayed an XC50 (Plasmodium falciparum, 3D7) of 800 nM.

For the setting “Plasmodium falciparum, 3D7”, `Cc1onc(-c2ccccc2)c1-c1nc(NCc2ccccc2Cl)no1` had an XC50 of 699 nM.

With `Fc1ccc(C2N=C(SCCSC3=NC(c4ccc(F)cc4)C(c4ccc(F)cc4)N3)NC2c2ccc(F)cc2)cc1` (stereo unspecified), where the note is “Plasmodium falciparum, 3D7”, the XC50 turned out to be 912 nM.

Under “Plasmodium falciparum, 3D7”, `COc1ccc2c(c1C1CCN(CCCCNC(=O)c3ccc(NC(=O)c4ccc(Cl)cc4)cc3)CC1)CCCC2` showed an XC50 of 341 nM.

Take `O=C(Cc1ccc(-c2ccccc2)cc1)N[C@H]1CCN(Cc2ccc(OCCCN3CCCCC3)cc2)C1`: the XC50 (Plasmodium falciparum, 3D7) came to 772 nM.

Molecule `O=C(NCc1ccc(F)cc1)Nc1ccc(-c2cccc(-c3nc4cc(C(F)(F)F)ccc4[nH]3)c2)cc1` showed an XC50 (Plasmodium falciparum, 3D7) of 946 nM.

Turning to `N#Cc1ccc(Cn2ccc3c4c(N)nc(N)nc4ccc32)cc1`, the XC50 (Plasmodium falciparum, 3D7) was determined as 3.29 nM.

In the case of `COc1cc(NC(=O)Nc2cccc3ccccc23)c(OC)cc1Cl`, the XC50 (Plasmodium falciparum, 3D7) came to 484 nM.
